Test results taken from patent US10500178B2, “LTB4 inhibition to prevent and treat human lymphedema” (The Board of Trustees of the Leland Stanford Junior …, priority 2015, dated 2019).

Assays:
[1] = test system: acquired lymphedema surgically induced in the tails of female C57BL/6J mice; assay: mouse-tail model of acquired lymphedema (tail volume, histology); assay type: in vivo
Protocol: Surgical induction of experimental lymphatic vascular insufficiency. […] Briefly, a full-thickness circumferential incision of the skin was made 16 mm distal to the base of the mouse tail under anesthesia. Lymphatic trunks were ablated through controlled, limited cautery application under the surgical microscope. For surgical controls (sham animals), the skin incision alone was performed without lymphatic cautery.
(§1) All small molecule drugs were administered through daily intraperitoneal injection.
Tail volume quantitation. Tail-volume measurements at each designated time were quantified by observers blinded to the treatment status of the subjects. Tail volumes were calculated through a digital photographic technique pre-operatively, and post-operatively (d3, d9, d14, d20, and d24), using an Olympus D520 Zoom digital camera at SHQ resolution at a fixed distance from the subject (37 cm), as previously described. Tail volumes were derived from the measurement of the tail diameter using the truncated cone approximation. Microlymphangiography was performed by injecting FITC-dextran (size: 2000 kDa) subcutaneously into mouse tails on post-surgery d24. Images were taken 20 minutes after injection.
Viral particles were mixed with Lipofectamine 2,000 (5% final vol/vol, Invitrogen) before injection, to increase transduction efficiency. qRT-PCR, immunofluorescence and fluorescence in situ hybridization were used to evaluate the silencing efficiency in the mouse tail skin 24d after surgery.

LTB4 = assay: serum LTB4 levels in lymphedema mice; assay type: in vivo, mouse; conditions: therapies initiated on d3, assessed on d24
Protocol: as §1
Quantification of LTB4, PGE2 and S1P with LC-MS/MS. Briefly, LTB4, PGE2 and S1P were separated from serum with an ACE reverse phase C18 HPLC column. Formic acid 0.5% in 5 mM NH4Ac (A) and formic acid 0.5% in acetonitrile/water (9/1) (B) were used as the mobile phase. […] The internal standard of this method was Carbutamide. The quantification limit was 1 ng/ml. The calibration range was 1-2000 ng/ml.

S1P, S1pr1, Sphk1, eNOS = assay: S1P signaling in mouse lymphedema; assay type: in vivo; conditions: therapy initiated 3d after surgery
Protocol: as §1
Quantification of LTB4, PGE2 and S1P with LC-MS/MS. Briefly, LTB4, PGE2 and S1P were separated from serum with an ACE reverse phase C18 HPLC column. Formic acid 0.5% in 5 mM NH4Ac (A) and formic acid 0.5% in acetonitrile/water (9/1) (B) were used as the mobile phase. Lipids were detected with positive multiple reaction monitor (MRM) scanning at 335.16/194.80 m/z for LTB4, 351.20/189.50 m/z for PGE2 and 330.20/264.40 m/z for S1P using a Sciex API-4000 MS/MS combined with a Shimazu 20A HPLC system. The internal standard of this method was Carbutamide. The quantification limit was 1 ng/ml. The calibration range was 1-2000 ng/ml. The accuracy of the standards and control samples ranged from 88.7% to 120%.

LEC Notch1−/− mice = assay: lymphedema surgery in LEC Notch1-/- mice; assay type: in vivo, mouse
Description: To generate lymphatic endothelial specific tdTomato reporter mice (Prox1-Cre-ER-tdTomato), Prox1-Cre-ER mice were crossed with tdTomato mice. To create lymphatic endothelial cell specific Notch1 or S1pr1 conditional knockouts, Prox1-Cre-ER mice were crossed with Notch1loxp/loxp or S1pr1loxp/loxp mice. Mice with Prox1-Cre-ER and both target alleles floxed by Prox1-Cre-ER/Notch1^loxp/loxp or Prox1-Cre-ER/S1pr1^loxp/loxp were considered to be either lymphatic endothelial cell-specific Notch1 knockout (LEC Notch1−/−) or S1pr1 knockout (LEC S1pr1^−/−), respectively. Mice expressing Prox1-Cre-ER were used as WT controls. […] Cre-mediated gene knockout efficiency was evaluated by enumerating Notch1- or S1PR1-expressing lymphatic endothelial cells or by qRT-PCR measurements of Notch1 or S1pr1 transcripts in the lymphatic endothelial cells, sorted by flow cytometry. […]
Tail volume quantitation. Tail-volume measurements at each designated time were quantified by observers blinded to the treatment status of the subjects. Tail volumes were calculated through a digital photographic technique pre-operatively, and post-operatively (d3, d9, d14, d20, and d24), using an Olympus D520 Zoom digital camera at SHQ resolution at a fixed distance from the subject (37 cm), as previously described. […]

secondary leg lymphedema = assay: study of ubenimex in patients with secondary leg lymphedema; assay type: in vivo, human; conditions: oral 150 mg three times daily, 6-month treatment period
Protocol: A study is conducted for treatment of patients with acquired lymphedema of the lower extremities with ubenimex. In this study, ubenimex is evaluated over a 6-month treatment period to determine the effect on dermal thickness and other efficacy measures in patients with secondary leg lymphedema. The efficacy, safety and tolerability of ubenimex in this patient population is characterized. Adult male and female subjects are enrolled with a confirmed diagnosis of Stage II or greater secondary leg lymphedema, based on a positive lymphoscintigraphy (LSG) study of the affected leg. At least 20 individuals are enrolled in each of the treatment and placebo arm of the trial. Individuals are given oral 150 mg ubenimex three times daily for a total daily dose of 450 mg. The drug and placebo are provided in a capsule form. Efficacy assessments include skin thickness (as measured by skinfold calipers), leg volume (as measured by standardized tape measure), bioimpedance (as measured by the […]) to measure 4-limb bioimpedance to determine extracellular fluid volume), and skin biopsy results (as measured by 6-mm skin punch biopsy samples to assess skin thickness and architecture (e.g., presence of hyperkeratosis, dermal collagen, and adipose deposition).

CC(C)C[C@H](NC(=O)[C@@H](O)[C@H](N)Cc1ccccc1)C(=O)O [bestatin, (2S)-2-[[(2S,3R)-3-amino-2-hydroxy-4-phenylbutanoyl]amino]-4-methylpentanoic acid]
benefit of LTB4 antagonism administered prior to surgery ([1]; therapies administered prior to sham and lymphedema surgery (bestatin, Ly293111 from d0, shLtb4r1 on d(−7))): not beneficial
amelioration of lymphedema (serial tail-volume measurements over 24d) ([1]; therapies started on post-surgery d3 (late LTB4 antagonism)): demonstrated therapeutic amelioration of lymphedema
reversal of more established disease by delayed dosing ([1]; therapy initiated 9d or 14d post-surgically): effective
serum LTB4 levels (LTB4): effectively reduced
S1P and S1pr1 levels (S1P, S1pr1, Sphk1, eNOS): restored
Sphk1 and eNOS expression (S1P, S1pr1, Sphk1, eNOS): normalized
response of lymphedema to therapy (LEC Notch1−/− mice): refractory
mural smooth muscle coverage around collecting lymphatics (LEC Notch1−/− mice; as against WTs): not restituted
difference between ubenimex and placebo treatment arms by clinical indicia (secondary leg lymphedema): statistically significant difference
